Measured values: patent publication US6586461B1, “Prenyl transferase inhibitors” (Wayne State University, priority 1998, dated 2003)

How the values were obtained:
[1] = system: HPAC (human pancreatic adenocarcinoma cells); assay: Proliferation of HPAC cells, Trypan Blue exclusion; format: cell-based; conditions: 48 hours
Protocol: The malignant human cell line HPAC (human pancreatic adenocarcinoma cells) was used in this study. The cells were seeded at a concentration of 2×10^5/ml in 24 well culture plate (Costar, Cambridge, Mass). […] Varying amounts of the stock solutions were then used to treat the HPAC cells. The final concentration of the farnesol analogs in the culture plate wells ranged from 0 nM (ethanol-treated control) to 500 nM. The plate was then incubated at 37° C. under a 5% CO2-humidified atmosphere for 48 hours. The total viable cells from each well were determined by Trypan Blue (0.4%) exclusion (Gibco, N.Y.) followed by cell counting.

H-Ras-F cells [2] = assay: Proliferation of H-Ras-F cells (control experiments); format: cell-based
[3] = system: H-Ras-GG in H-Ras-GG cells; assay: Subcellular fractionation / Western blot of Ras in lovastatin-treated H-Ras-GG cells; format: cell-based; conditions: for Protein geranylgeranylation in cells: summary statement
Protocol: H-Ras-F (A) or H-Ras-GG (B) cells were treated with 25 μM lovastatin for 24 h after which the indicated FPP or GGPP analogs (resuspended in media) were added directly to the cell media. Following an additional 24 h incubation period, the cells were harvested, lysed and the membranes (M) separated from the cytosol (C). After solubilization of the membrane fraction, Ras protein was immunoprecipitated from both the membrane and cytosolic fractions by the addition of the Y13-259 antibody (OP04 from Oncogene Science). The presence of Ras protein in each fraction was analyzed by Western transfer techniques. Incubation with the primary antibody (pan-ras Ab-2 from Oncogene Science) and an anti-mouse HRP conjugate secondary antibody (Amersham) was employed for detection of the ras protein. Blots were developed using Enhanced Chemiluminescence techniques (Amersham). The technique is described in detail by Scholten, et al., Bioorg. Med. Chem., Vol. 4, pages 1537-1543 (1992).
The selectivity and mechanism of the observed cell growth inhibition was further probed by studying the effects of the 3-vinyl and 3-allyl GGPP analogs on the subcellular distribution of the geranylgeranylated protein variant in H-Ras-GG cells in a manner similar to that described for 3-vFPP and 3-alFPP. The Western blot is shown on FIG. 8. With H-Ras-GG cells, as with H-Ras-F cells, blockage of the mevalonate pathway results in a shift in the subcellular location of the Ras protein from the membrane to the cytosol.

H-Ras-GG cells = assay: Cell morphology of lovastatin-treated H-Ras-GG cells; format: cell-based; conditions: 25 μM lovastatin 24 h, then analog 24 h
Protocol: (§1) It has been well established that levels of lovastatin that completely block the mevalonate pathway result in cell cycle blockade, significant cytotoxicity, and a sharp change in cell appearance to a rounded morphology. The effects of lovastatin on the cell morphology of H-Ras-F and H-Ras-GG cells treated with FPP, GGPP, 3-vFPP, 3-vGGPP, 3-alFPP, and 3-alGGPP were photographed and the results are shown on FIG. 9 (H-Ras-F) and 8 (H-Ras-GG), respectively. The H-Ras-F and H-Ras-GG cells were grown in six-well plates to 70-80% confluence. After treating the cells with lovastatin (25 μM) for 24 hour, the indicated FPP or GGPP analogs (re-suspended in media) were added directly to the cell media. Photographs were taken after an additional 24 hour incubation period.

H-Ras-F cells [4] = assay: Cell morphology of lovastatin-treated H-Ras-F cells; format: cell-based; conditions: 25 μM lovastatin 24 h, then analog 24 h
Protocol: as §1

recombinant mGGTase I = recombinant mGGTase I (Homo sapiens, UniProt P49354+P53609); assay: GGTase I scintillation proximity assay; format: biochemical; conditions: tritiated GGPP
Protocol: (§2) The method is described in detail in Yokama, et al., J. Biol. Chem., Vol. 272, No. 7, pages 3944-3952 (February 1997). The FTase, tritiated FPP, and the peptide were incubated at 37° C. for 30 minutes in a buffer. After incubation, a stop reagent and streptavidin beads (Amersham) were added. The radioactive product was counted on a Wallac Microbeta 1450 scintillation counter. The kinetic fits were derived from a nonlinear least squares computer fit of the data. The Ki values were determined using the same assay system with varying concentrations of tritiated FPP.
GGTase I values were determined in a similar manner using recombinant mGGTase I, tritiated GGPP, and the peptide Biotin-Aha-Thr-Lys-Cys-Val-Ile-Leu-OH.

[5] = target: recombinant mFTase (affinity purified rat FPTase) (Rattus norvegicus, UniProt Q02293+Q04631); assay: FTase scintillation proximity assay; format: biochemical; conditions: for IC50: recombinant mFTase, tritiated FPP 0.12 μM, peptide 0.1 μM; for FTase/GGTase: selectivity mFTase against mGGTase I
Protocol: as §2

[6] = system: NIH 3T3 fibroblasts transfected with H-Ras(61 L) [H-Ras-F]; assay: Soft agar anchorage-independent growth, H-Ras-F cells; format: cell-based; conditions: soft agar, 2 weeks; read-out: Mean IC50 (±S.E.) H-Ras-F
Protocol: (§3) Presumably, the non-polar alcohols pass through the cell membrane and are then diphosphorylated by an as yet uncharacterized kinase to FPP or GGPP.
(§4) The 3-substituted analogs were evaluated as inhibitors of the growth of ras-transformed cells by comparing their relative degree of activity against an isogenic panel of transformed cell lines, comprised of NIH 3T3 fibroblasts transfected with either H-Ras(61 L) [H-Ras-F], H-Ras(61 L)CVLL [H-Ras-GG], or a transforming form of c-raf [Raf]. The H-Ras-F, H-Ras-GG, and raf transformed NIH3T3 cell lines have been previously described in Cox, et al., Molecular and Cellular Biology, Vol. 12, No. 6, pages 2606-2615 (1992). The cells were grown prior to plating in Dulbecco's modified Eagle medium supplemented with 10% calf serum and 1% antibiotic/antimycotic at 37° C. and 10% CO2. Experiments were carried out in 6-well dishes in a two layer agar system (0.6% bottom layer and 0.3% top layer). Cells were incorporated into the top layer along with varying concentrations of the compound prepared in ethanol. Compound addition occurred only at the time the cells were seeded. Subsequent incubation was at 37° C. with 10% CO2 for 2 weeks. Colonies were stained with 0.5 ml/well of 1 mg/ml p-iodonitrotetrazolium violet (Sigma) for 24 hours prior to quantitation by image analysis.

[7] = system: NIH 3T3 fibroblasts transfected with H-Ras(61 L)CVLL [H-Ras-GG]; assay: Soft agar anchorage-independent growth, H-Ras-GG cells; format: cell-based; conditions: 2 weeks, read-out: Mean IC50 (±S.E.) H-Ras-GG
Protocol: as §3, §4

[8] = system: NIH 3T3 fibroblasts transfected with a transforming form of c-raf [Raf]; assay: Soft agar anchorage-independent growth, Raf cells; format: cell-based; conditions: 2 weeks, mean of two tests
Protocol: as §3, §4

H-Ras-F cells [9] = assay: Incorporation of radiolabel into proteins of H-Ras-F cells; format: cell-based; conditions: 5 μM, 18 h, lovastatin-treated H-Ras-F cells
Protocol: H-Ras-F cells were treated with 25 μM lovastatin for 24 h after which the following were added directly to four samples of the cell media: (1) control-untreated, (2) 3-vinyl-1-[^3H]-farnesol (5 μM, 1.34 μCi/ml), (3) 1-[^3H]-FPP (3 μM, 50 μCi/ml; Amersham), and (4) 1-[^3H]-farnesol (3 μM, 50 μCi/ml; American Radiolabeled Chemicals). […] After drying, the membranes were sprayed with En^3Hance (Amersham) and exposed to film (Hyperfilm MP, Amersham) for a period of time prior to developing (4 days for 1-[^3H]-FPP and 1-[^3H]-farnesol) and 28 days for 3-vinyl-1-[^3H]-farnesol). The exposed films are shown on FIG. 8 where the control and radioactive bands are designated as indicated above.

Molecule: 3-Vinyl-7,11-dimethyldodeca-2(Z),6(E),10-trien-1-ol [3-vinyl Farnesol]
- Effect on HPAC cells at 100 nM ([1]; 100 nM): cytostasis
- Viable HPAC cell count at 100 nM ([1]; 100 nM, seeded 2×10^5/ml, control well 2.2×10^6 cells): ~2×10^5 /well
- Effect on HPAC cells at 500 nM ([1]; listed as 3-Vinylfarnesol): complete cytotoxicity
- Effect on HPAC cells at 500 nM ([1]; listed as 3-vinylfarnesol): potently cytotoxic
- Effect on growth of H-Ras-F cells (H-Ras-F cells [2]; concentration not given): complete inhibition of growth

Molecule: 3-vinyl geranylgeranyl diphosphate [Compound 3-vGGPP]
- Membrane localization of H-Ras-GG ([3]; H-Ras-GG cells, lovastatin-treated): resulted in restoration of the membrane localization of H-Ras-GG
- Restoration of flattened morphology of lovastatin-treated H-Ras-GG cells (H-Ras-GG cells): completely restore
- Reversal of rounded morphology of lovastatin-treated H-Ras-F cells (H-Ras-F cells [4]): restore the flattened morphology of cells
- IC50 (recombinant mGGTase I): 3.05 µM
- IC50 [5]: 0.715 µM
- FTase/GGTase [5]: 4.3

Molecule: C=CC/C(=C\CO)CC/C=C(\C)CC/C=C(\C)CCC=C(C)C [3-allyl Geranylgeraniol, 3-Allyl-7,11,15-trimethylhexadeca-2(Z),6(E),10(E),14-tetraen-1-ol]
- IC50 [6]: > 25 µM
- IC50 [7]: 4.6 µM
- IC50 [8]: > 25 µM
- Protein geranylgeranylation in cells [3]: inhibits protein geranylgeranylation

Molecule: C=C/C(=C\CO)CC/C=C(\C)CC/C=C(\C)CCC=C(C)C [3-vinyl Geranylgeraniol, 3-Vinyl-7,11,15-trimethylhexadeca-2(Z),6(E),10(E),14-tetraen-1-ol]
- IC50 [6]: 18 ± 4.1 µM
- IC50 [7]: 13.9 ± 2.3 µM
- IC50 [8]: 5.6 µM
- Protein geranylgeranylation in cells [3]: restores protein geranylgeranylation in cells

Molecule: [3H]C(O)C=C(C=C)CCC=C(C)CCC=C(C)C (stereo not drawn) [3-vinyl-1-[^3H]-farnesol]
- Radiolabel incorporation into protein bands (H-Ras-F cells [9]): the radiolabel migrates with the same protein bands as seen when cells are treated with tritiated farnesol and FPP

Molecule: C=CC/C(=C\COP(=O)(O)OP(=O)(O)O)CC/C=C(\C)CC/C=C(\C)CCC=C(C)C [Compound 3-alGGPP, 3-Allyl-7,11,15-trimethylhexadeca-2(Z),6(E),10(E),14-tetraene diphosphate]
- Restoration of flattened morphology of lovastatin-treated H-Ras-GG cells (H-Ras-GG cells): partially restore
- Reversal of rounded morphology of lovastatin-treated H-Ras-F cells (H-Ras-F cells [4]): reversion in morphology
- IC50 (recombinant mGGTase I): 3.38 µM
- IC50 [5]: 0.453 µM
- FTase/GGTase [5]: 7.5

Molecule: CC(C)=CCCC(C)=CCCC(C)=CCO [farnesol, reference compound]
- Effect on HPAC cells at 500 nM [1]: no effect
- Effect on proliferation of H-Ras-F cells (H-Ras-F cells [2]; 30 μM, data not shown): little effect
